This assay concerns NCI-H460. Kind of assay: MTT cell viability assay. It counts as cell-based, human. As for the experimental part: Cell Line cells were obtained from American Type Culture Collection, cells were cultured using Dulbecco's Modified Eagle's medium (DMEM) (Invitrogen/Life Technologies) supplemented with 10% foetal bovine serum (FBS) (Hyclone), 10 μg/mL of insulin (Sigma), and 1% penicillin-streptomycin. All of the other chemicals and reagents were from Sigma, or Invitrogen. Plate cells (cells density 1.2 – 1.8 × 10,000 cells/well) in a volume of 100 µL complete growth medium and 100 μL of the tested compound per well in a 96-well plate for 24 h before the MTT assay.
Remove culture medium to a centrifuge tube. […] Add 2.0 to 3.0 ml of Trypsin EDTA solution to flask and observe cells under an inverted microscope until cell layer is dispersed. Add 6 to 8 ml of complete growth medium and aspirate cells by gently pipetting. Transfer the cell suspension to the centrifuge tube with the medium and centrifuge for 5 to 10 min. Discard the supernatant. Resuspend the cell pellet in fresh growth medium. Add appropriate aliquots of the cell suspension to new culture vessels. Incubate cultures at 37 °C for 24 h. After treatment of cells with the serial concentrations of the compound to be tested incubation is carried out for 48 h at 37 °C, then the plates are to be examined under the inverted microscope and proceed for the MTT assay.
The 3–(4, 5-dimethylthiazol-2-yl)-2,5-diphenyltetrazolium bromide (MTT) method[30] of monitoring in vitro cytotoxicity is well suited for use with multiwell plates. The assessment of cell population growth is based on the capability of living cells to reduce the yellow product MTT to a blue product, formazan, by a reduction reaction occurring in the mitochondria. The five cell lines were incubated for 24 h in 96-microwell plates. The number of living cells in the presence or absence (control) of the various test compounds is directly proportional to the intensity of the blue colour, measured by spectrophotometry using (ROBONIK P2000 Spectrophotometer) at a wavelength of 570 nm. Measure the background absorbance of multiwell plates at 690 nm and subtract from the 570 nm measurement. Five concentrations ranging from 0.01 μM to 100 μM (with semi-log decrease in concentration) were tested for each of the compounds under study. Each experiment was carried out in triplicate. The IC50 values [the concentration required for 50% inhibition of cell viability] were calculated using sigmoidal dose response curve-fitting models.
(Tetrazolium dyes change colour on reduction, which living cells bring about.)

Data on one compound can be found in paper PMC6352943, “Novel pyrazolo[3,4-d]pyrimidines: design, synthesis, anticancer activity, dual EGFR/ErbB2 receptor tyrosine kinases inhibitory activity, effects on cell cycle profile and caspase-3-mediated apoptosis” (Journal of Enzyme Inhibition and Medicinal Chemistry, 2019).

In the case of `Cc1nn(-c2ccc(F)cc2)c2ncnc(Nc3ccc(F)c(Cl)c3)c12` [Compound 7d, N-(3-Chloro-4-fluorophenyl)-1–(4-fluorophenyl)-3-methyl-1H-pyrazolo[3,4-d] pyrimidin-4-amine], the IC50 (Homo sapiens, NCI-H460 lung cancer, MTT, 48 h, mean ± SD of three experiments, read-out: IC50 (concentration required for 50% inhibition of cell viability)) came out at 4.44 ± 0.26 µM. In addition, the “Potency relative to Erlotinib (fold more potent)” value (NCI-H460, from IC50 values) is reported as 1.9 fold.
